What was measured:
TNF = experiment: Serum TNF in endotoxemic mice (ELISA); format: in vivo, Balb/C mice; details: 2 hours after LPS
Protocol: (§1) Endotoxin shock. Mice were injected with endotoxin (Escherichia coli lipopolysaccharide, LPS 0111:B4; Sigma Chemical Co, St. Louis, Mo.) that was dissolved in sterile pyrogen-free saline at stock concentrations of 10 mg/ml. LPS solutions were sonicated for 20 min immediately prior to use for each experiment. Mice received an LD75 dose of LPS (5 mg/kg, i.p.). Blood was collected at different times after LPS administration, allowed to clot for 2 h at room temperature, then centrifuged for 20 min at 1,500 g. Serum samples were stored at […] prior to analysis. Mortality was recorded for up to 3 weeks after injection to ensure that no additional late deaths occurred.
(§2) Cytokine measurements. TNF concentration in mouse serum and in conditioned media from RAW 264.7 cell cultures was measured by ELISA (minimum detectable concentration=10 pg/ml). […] Mouse serum IL-6 and IL-1β levels were measured using ELISA kits (R&D Systems, Inc., Minneapolis, Minn.). HMGB-1 was analyzed by western blot as previously described by Wang et al, 1999. […] Protein was electroblotting to Immun-blot PVDF membrane (Bio-rad, Hercules Calif.) and HMGB-1 was analyzed using polyclonal 241 antibody and secondary anti-rabbit horseradish peroxidase (Amersham, Pitscataway, N.J.). Standard curves were constructed using r-HMGB-1, and the intensity of the 30 kD band analyzed by densitometry. […]

IL-1 = experiment: Peak serum IL-1 in endotoxemic mice (ELISA); format: in vivo, Balb/C mice; details: pretreatment, data not shown
Protocol: as §1, §2

IL6 = experiment: Peak serum IL6 in endotoxemic mice (ELISA); format: in vivo, Balb/C mice; details: pretreatment, data not shown
Protocol: as §1, §2

NF-B = experiment: LPS-induced NF-kB activation in RAW264.7 cells (EMSA); format: cell-based, murine; details: EMSA at 15 minutes and 4 hours after LPS
Protocol: Cell Culture. BALB/c murine macrophage-like RAW 264.7 cells obtained from the American Type Culture Collection (ATCC Number TIB-71, ATCC, Rockville, Mass.) (61), were cultured in RPMI 1640 (Life Technologies, Grand Island, N.Y.) supplemented with 10% heat inactivated fetal bovine serum (Gemini, Calabasas, Calif.), 2 mM glutamine (Cat. # 25030-149, Gibco BRL, Rockville, Mass.) and antibiotic-antimycotic mix (Cat. # 15240-062, Gibco BRL, Rockville, Mass.) in a humidified incubator with 5% CO2. Cells were mechanically removed and resuspended in serum-free Opti-MEM I medium (Life Technology, Grand Island, N.Y.) to perform experiments at 75% confluence.
Nuclear extract preparation. The day before use, cells were plated at a density of 1×10^6 per well in 6 well tissue culture plates. After stimulation at indicated times, cells were removed from the incubator and place on ice immediately. Cells were washed once with 2 ml phosphate buffered saline (PBS) then harvested in 1 ml of PBS containing 2% FBS using rubber scrapper. […] The supernatant was transferred to a new tube, protein concentration was determined using a commercially available Bradford assay (Bio-Rad Protein Assay, Hercules, Calif.). […]

CCOC(=O)C(C)=O [ethyl pyruvate]
serum TNF (TNF; pretreatment 40 mg/kg 30 min before LPS 5 mg/kg i.p., vehicle printed 17+/−4, P<0.05): 39+−6 ng TNF/ml
release of serum TNF (in words) (TNF; pretreatment 40 mg/kg): significantly attenuates the release of serum TNF
peak serum level of IL-1 (IL-1): attenuated
peak serum level of IL6 (IL6): attenuated
LPS-induced activation of NF-B (NF-B): significantly prevented LPS-induced activation of NF-B signaling in a concentration dependent fashion

Source: US6943190B2, “Method of using pyruvate and/or its derivatives for the treatment of cytokine-mediated inflammatory conditions” (University of Pittsburgh-of the Commonwealth System of …, priority 2001, dated 2005)
